In patent US20220378707A1, “1-(((2S,3S,4S)-3-ETHYL-4-FLUORO-5-OXOPYRROLIDIN-2-YL)METHOXY)-7-METHOXYISOQUINOLINE-6-CARBOXAMIDE COMBINATIONS AND ORAL DOSAGE FORMS” (Pfizer Inc., priority 2019, published 2022):

How the values were obtained:
[1] = Particle size of PF-06650833 by milling process; assay type: physicochemical; conditions: PF-06650833 particles
[2] = Combination oral pharmacokinetic study of PF-06651600 and PF-06650833 in rat; conditions: male Wistar Han rat, PF-06651600 10 and 50 mg/kg, PF-06650833 30 and 100 mg/kg
Experimental: Doses of 1-((2S,5R)-5-((7H-pyrrolo[2,3-d]pyrimidin-4-yl)amino)-2-methylpiperidin-1-yl)prop-2-en-1-one were 10 and 50 mg/kg and 1-(((2S,3S,4S)-3-ethyl-4-fluoro-5-oxopyrrolidin-2-yl)methoxy)-7-methoxyisoquinoline-6-carboxamide were 30 and 100 mg/kg in male Wistar Han.

[3] = tested on: human primary cell-based systems; experiment: BioMAP panel of 12 systems; conditions: BioMAP profile, PF-06651600 200-5400 nM
Text: (§1) The BioMAP systems consist of human primary cell-based systems designed to model different aspects of the human body in an in vitro format. The 12 systems tested characterized the test compounds across a broad set of systems modeling various human disease states. BioMAP systems were constructed with one or more primary cell types from healthy human donors, with stimuli (such as cytokines or growth factors) added to capture relevant signaling networks that naturally occur in human tissue or pathological conditions. Vascular biology was modeled in both a Th1 (3C system) and a Th2 (4H system) inflammatory environment, as well as in a Th1 inflammatory state specific to arterial smooth muscle cells (CASM3C system). Additional systems recapitulated aspects of the systemic immune response that included monocyte-driven Th1 inflammation (LPS system) or T cell stimulation (SAg system), chronic Th1 inflammation driven by macrophage activation (IMphg system) and the T cell-dependent activation of B cells that occurs in germinal centers (BT system). The BE3C system (Th1) and the BF4T system (Th2) represented airway inflammation of the lung, while the MyoF system modeled myofibroblast-lung tissue remodeling. Lastly, skin biology was addressed in the KF3CT system modeled Th1 cutaneous inflammation and the HDF3CGF system modeled wound healing.
(§2) All cells were from a pool of multiple donors (n=2-6), commercially purchased and handled according to the recommendations of the manufacturers. Human blood derived CD14+ monocytes were differentiated into macrophages in vitro before being added to the IMphg system. Abbreviations were used as follows: human umbilical vein endothelial cells (HUVEC), peripheral blood mononuclear cells (PBMC), human neonatal dermal fibroblasts (HDFn), B cell receptor (BCR), T cell receptor (TCR) and toll-like receptor (TLR). Cell types and stimuli used in each system were as follows:
(§3) 3C system [HUVEC+(IL-1β, TNFα and IFNγ)]; 4H system [HUVEC+(IL-4 and histamine)]; LPS system [PBMC and HUVEC+LPS (TLR4 ligand)]; SAg system [PBMC and HUVEC+T cell receptor (TCR) ligands]; BT system [CD19+B cells and PBMC+(α-IgM and TCR ligands)]; BF4T system [bronchial epithelial cells and HDFn+(TNFα and IL-4)]; BE3C system [bronchial epithelial cells+(IL-1p, TNFα and IFNγ)]; CASM3C system [coronary artery smooth muscle cells+(IL-1p, TNFα and IFNγ)]; HDF3CGF system [HDFn+(IL-1β, TNFα, IFNγ, EGF, bFGF and PDGF-BB)]; KF3CT system [keratinocytes and HDFn+(IL-1β, TNFα and IFNγ)]; MyoF system [differentiated lung myofibroblasts+(TNFα and TGFβ)]; and IMphg system [HUVEC and M1 macrophages+Zymosan (TLR2 ligand)].
(§4) Systems were derived from either single cell types or co-culture systems. Adherent cell types were cultured in 96 or 384-well plates until confluence, followed by the addition of PBMC (SAg and LPS systems). The BT system consisted of CD19+B cells co-cultured with PBMC and stimulated with a BCR activator and low levels of TCR stimulation. Test agents were prepared in DMSO (final concentration <0.1%) and were added 1 hour before stimulation, and remained in culture for 24 hours or as otherwise indicated (48-hrs, MyoF system; 72-hrs, BT system (soluble readouts); 168-hrs, BT system (secreted IgG)). Each plate contained drug controls (e.g., legacy control test agent colchicine at 1.1 μM), negative controls (e.g., non-stimulated conditions) and vehicle controls (e.g., 0.1% DMSO) appropriate for each system. Direct ELISA was used to measure biomarker levels of cell-associated and cell membrane targets. Soluble factors from supernatants were quantified using either HTRF® detection, bead-based multiplex immunoassay or capture ELISA. Overt adverse effects of test agents on cell proliferation and viability (cytotoxicity) were detected by sulforhodamine B (SRB) staining, for adherent cells, and alamarBlue® reduction for cells in suspension. […]

[4] = tested on: HDFn+(IL-1β, TNFα, IFNγ, EGF, bFGF and PDGF-BB); experiment: BioMAP HDF3CGF system; assay type: cell-based, human; conditions: wound healing, Th1-type inflammation; concentrations of FIGS. 12-16
Text: as §1, §2, §3
Systems were derived from either single cell types or co-culture systems. Adherent cell types were cultured in 96 or 384-well plates until confluence, followed by the addition of PBMC (SAg and LPS systems). […] Test agents were prepared in DMSO (final concentration <0.1%) and were added 1 hour before stimulation, and remained in culture for 24 hours or as otherwise indicated (48-hrs, MyoF system; 72-hrs, BT system (soluble readouts); 168-hrs, BT system (secreted IgG)). […] Soluble factors from supernatants were quantified using either HTRF® detection, bead-based multiplex immunoassay or capture ELISA. Overt adverse effects of test agents on cell proliferation and viability (cytotoxicity) were detected by sulforhodamine B (SRB) staining, for adherent cells, and alamarBlue® reduction for cells in suspension.

[5] = tested on: PBMC and HUVEC+T cell receptor (TCR) ligands; experiment: BioMAP SAg system; assay type: cell-based, human; conditions: for Inhibition of biomarker readouts in the SAg system: T cell-driven Th1 vascular inflammation, concentrations of FIGS. 12-16
Text: as §1, §2, §3
Systems were derived from either single cell types or co-culture systems. Adherent cell types were cultured in 96 or 384-well plates until confluence, followed by the addition of PBMC (SAg and LPS systems). The BT system consisted of CD19+B cells co-cultured with PBMC and stimulated with a BCR activator and low levels of TCR stimulation. Test agents were prepared in DMSO (final concentration <0.1%) and were added 1 hour before stimulation, and remained in culture for 24 hours or as otherwise indicated (48-hrs, MyoF system; 72-hrs, BT system (soluble readouts); 168-hrs, BT system (secreted IgG)). Each plate contained drug controls (e.g., legacy control test agent colchicine at 1.1 μM), negative controls (e.g., non-stimulated conditions) and vehicle controls (e.g., 0.1% DMSO) appropriate for each system. Direct ELISA was used to measure biomarker levels of cell-associated and cell membrane targets. Soluble factors from supernatants were quantified using either HTRF® detection, bead-based multiplex immunoassay or capture ELISA. Overt adverse effects of test agents on cell proliferation and viability (cytotoxicity) were detected by sulforhodamine B (SRB) staining, for adherent cells, and alamarBlue® reduction for cells in suspension.

[6] = tested on: CD19+B cells and PBMC+(α-IgM and TCR ligands); experiment: BioMAP BT system; assay type: cell-based, human; conditions: for Inhibition of biomarker readouts in the BT system: T cell dependent B cell activation, concentrations of FIGS. 12-14; for B cell proliferation in the BT system: concentrations of FIGS. 13-14
Text: as §1, §2, §3, §4

[7] = tested on: PBMC and HUVEC+LPS (TLR4 ligand); experiment: BioMAP LPS system; assay type: cell-based, human; conditions: monocyte-driven Th1 inflammation, concentrations of FIGS. 12-14
Text: as §1, §2, §3, §4

[8] = listed as 1-((2S,5R)-5-((7H-Pyrrolo[2,3-d]pyrimidin-4-yl)amino)-2-methylpiperidin-1-yl)pro
[9] = listed as 1-((2S,5R)-5-((7H-pyrrolo[2,3-d]pyrimidin-4-yl)amino)-2-methylpiperidin-1-yl)pro

| Structure (SMILES) | Particle size D[4, 3] [1] | Particle size D[v, 0.1] [1] | Particle size D[v, 0.5] [1] | Particle size D[v, 0.9] [1] | Effects of PF-06650833 on the pharmacokinetics of PF-06651600 [2] | Immunomodulatory activities: Decreased Activity ([3]; PF-06650833 19-500 nM, tofacitinib 37-1000 nM) | Tissue Remodeling Activities: Decreased Activity [3] | Inhibition of biomarker readouts in the HDF3CGF system [4] | Inhibition of biomarker readouts in the SAg system [5, 8] | Inhibition of biomarker readouts in the SAg system [5, 9] | Proliferation of T cells in the SAg system ([5]; concentrations of FIGS. 13-14) | Inhibition of biomarker readouts in the BT system [6, 8] | Inhibition of biomarker readouts in the BT system [6, 9] | B cell proliferation in the BT system [6, 8] | B cell proliferation in the BT system [6, 9] | Inhibition of biomarker readouts in the LPS system [7, 8] | Inhibition of biomarker readouts in the LPS system [7, 9] |
| --- | --- | --- | --- | --- | --- | --- | --- | --- | --- | --- | --- | --- | --- | --- | --- | --- | --- |
| CC[C@@H]1[C@H](F)C(=O)N[C@@H]1COc1nccc2cc(C(N)=O)c(OC)cc12 [Fitzmilled, 1-(((2S,3S,4S)-3-Ethyl-4-fluoro-5-oxopyrrolidin-2-yl)methoxy)-7-methoxyisoquinoline-6-carboxamide] | 17.0 μm | 2.0 μm | 10.0 μm | 35.0 μm | – | – | – | – | – | – | – | – | – | – | – | – | – |
| CC[C@@H]1[C@H](F)C(=O)N[C@@H]1COc1nccc2cc(C(N)=O)c(OC)cc12 [Jetmilled, 1-(((2S,3S,4S)-3-Ethyl-4-fluoro-5-oxopyrrolidin-2-yl)methoxy)-7-methoxyisoquinoline-6-carboxamide] | 4.6 μm | 0.7 μm | 3.9 μm | 9.6 μm | – | – | – | – | – | – | – | – | – | – | – | – | – |
| C=CC(=O)N1C[C@H](Nc2ncnc3[nH]ccc23)CC[C@@H]1C [PF-06651600, 1-((2S,5R)-5-((7H-Pyrrolo[2,3-d]pyrimidin-4-yl)amino)-2-methylpiperidin-1-yl)prop-2-en-1-one] | – | – | – | – | no significant effects | *sIgG, B cell proliferation, T cell proliferation | PAI-I | PA-I | IL-8 | sIL-s8 levels were reduced | inhibited | sIgG, sIL-17A, sIL-17F, sIL-6, and TNFα | sIgG, sIL-17A, sIL-17F, sIL-6, and sTNFα | inhibited | B cell anti-proliferative activity | TNFα | sTNFα levels were reduced |
| CC[C@@H]1[C@H](F)C(=O)N[C@@H]1COc1nccc2cc(C(N)=O)c(OC)cc12 [Unmilled, 1-(((2S,3S,4S)-3-Ethyl-4-fluoro-5-oxopyrrolidin-2-yl)methoxy)-7-methoxyisoquinoline-6-carboxamide] | 28.4 μm | 4.6 μm | 22.3 μm | 61.6 μm | – | – | – | – | – | – | – | – | – | – | – | – | – |
